According to patent US7977388B2, “Quinone derivative 2,3-dimethoxy-5-methyl-6-(10-hydroxydecyl)-1,4-benzoquinone for the treatment of muscular dystrophies” (Santhera Pharmaceuticals (Schweiz) AG, priority 2005, dated 2011):

System: dystrophin-deficient mdx mouse
Test: Voluntary daily running performance of idebenone-treated mdx mice
Assay type: in vivo
Method: The effect of idebenone on the running performance was tested in the dystrophin-deficient mdx mouse, a validated animal model for DMD. Starting at day 21 of age, mdx mice were treated with idebenone. Their daily running performance was compared to mdx mice treated with vehicle only and to non-treated wild-type mice. For this, idebenone was dissolved in 0.5% w/v carboxymethylcellulose (CMC) to a final concentration of 20 mg/ml. Idebenone (20 mg/ml in 0.5% CMC) was applied once a day by gavage feeding. The final dose of idebenone at all time points was 200 mg/kg body weight. Control mice received the same amount of vehicle only. […] Idebenone treated mdx mice performed clearly better compared to the vehicle-treated mdx mice from the start of the analysis.

## COC1=C(OC)C(=O)C(CCCCCCCCCCO)=C(C)C1=O [idebenone, 2,3-dimethoxy-5-methyl-6-(10-hydroxydecyl)-1,4-benzoquinone]
Mdx mice treated daily with idebenone vs vehicle-treated mdx and wild-type mice, distance in meters
  Total daily running distance: clearly increased
Mdx mice, 200 mg/kg body weight once a day by gavage in 0.5% CMC from day 21 of age, analysed 29-84 days of age, vs vehicle-treated mdx mice
  Daily running performance: prominent increase
